Measured values from paper PMC2362811, “In vivo efficacy of XR9051, a potent modulator of P-glycoprotein mediated multidrug resistance” (British Journal of Cancer, 1999).
Read-outs that look alike come from different tables or passages of the source.

How the values were obtained:
[1] = Pharmacokinetics of XR9051 after single i.v. dose in Balb/c mice (plasma, liver, heart, brain; HPLC); type: in vivo, mouse; settings: for half-life: two-compartment model
in vivo = type: in vivo; design: maximum concentration in tumour tissue / maximum concentration in tumour tissue (molar) / concentrations in H69/LX4 MDR tumours over a 25 h period: unit not given here
[2] = Plasma levels of XR9051 after single oral dose in Balb/c mice; type: in vivo; settings: mouse
[3] = system: P388/P-sensitive murine leukaemia; experiment: In vivo efficacy, P388/P sensitive murine leukaemia model (survival); design: species or system mouse; settings: for lifespan of tumour-bearing animals vs vehicle alone: vincristine 0.1 mg kg-1 i.p. days 1-5 or doxorubicin 2 mg kg-1 i.p. days 1, 4 and 7, P < 0.005
[4] = system: MC26 murine colon carcinoma; type: in vivo
MC26 cells = experiment: In vitro sensitization of MC26 cells to doxorubicin; type: cell-based, mouse; settings: 500 nM XR9051, in vitro (unpublished data)
[5] = system: 2780AD ovarian carcinoma xenografts; type: in vivo
[6] = system: CH1/DOXr ovarian carcinoma xenografts; type: in vivo; settings: for tumour growth rate compared with either drug alone: P < 0.01
[7] = system: H69/LX small cell lung carcinoma xenografts; type: in vivo
[8] = system: P388/DX Johnson murine leukaemia; settings: for survival of resistant leukaemia-bearing mice, combination vs cytotoxic drug alone: days 1-5, P < 0.01; for survival, cytotoxic drug in the absence of XR9051: P388/DX Johnson-resistant leukaemia-bearing mice, cytotoxic drug alone
[9] = system: murine and human P-gp-expressing cell lines; design: method as in Dale et al, 1998; settings: co-exposure, several murine and human P-gp-expressing cell lines; ref Dale et al, 1998; cited from earlier work
P388/DX Johnson cells = settings: the cell line used in our studies
[10] = system: P388 cells transfected with the human MDR1 gene; settings: ref Yang et al, 1994; cited from earlier work
[11] = single i.v. 20 mg kg-1, H69/LX4 SCLC xenograft-bearing athymic mice

COc1cc2c(cc1OC)CN(CCc1ccc(NC(=O)c3cccc(/C=c4\[nH]c(=O)/c(=C/c5ccccc5)n(C)c4=O)c3)cc1)CC2 [XR9051, N-(4-(2-(6,7-dimethoxy-1,2,3,4-tetrahydro-2-isoquinolyl)ethyl)phenyl)-3-((3Z,6Z)-6-benzylidene-1-methyl-2,5-dioxo-3-piperazinylidene)methylbenzamide]
linearity of intravenous pharmacokinetic parameters ([1]; i.v., between 20 and 100 mg kg-1 doses (data not shown)): linear
Vd ([1]; mouse, in vivo, iv, single i.v. 20 mg kg-1, Balb/c mice, read-out: steady-state volume of distribution): 9.6 L/kg
Kp ([1]; mouse, iv, single i.v. 20 mg kg-1, Balb/c mice, brain, read-out: ratio between AUC for tissue:plasma, brain): 0.3
Kp ([1]; mouse, iv, single i.v. 20 mg kg-1, Balb/c mice, heart, read-out: ratio between AUC for tissue:plasma, heart): 16.9
Kp ([1]; mouse, iv, single i.v. 20 mg kg-1, Balb/c mice, liver, read-out: ratio between AUC for tissue:plasma, liver): 79.6
AUC ([1]; mouse, iv, single i.v. 20 mg kg-1, Balb/c mice, plasma, read-out: AUC from time 0- for plasma): 11900 ng·h/mL
half-life ([1]; mouse, iv, single i.v. 20 mg kg-1, Balb/c mice, brain, read-out: apparent elimination half-life in brain (converted)): 1.15 h
half-life ([1]; mouse, iv, single i.v. 20 mg kg-1, Balb/c mice, heart, read-out: apparent elimination half-life in heart (converted)): 2 h
half-life ([1]; mouse, iv, single i.v. 20 mg kg-1, Balb/c mice, liver, read-out: apparent elimination half-life in liver (converted)): 4.93 h
half-life ([1]; mouse, iv, single i.v. 20 mg kg-1, Balb/c mice, plasma, read-out: apparent elimination half-life in plasma (converted)): 3.96 h
AUC (in vivo; athymic, mouse, tumour (H69/LX4 SCLC xenograft), iv, single i.v. 20 mg kg-1, H69/LX4 tumour, read-out: AUC0- in tumour tissue): 57100 ng·h/mL
half-life (in vivo; athymic, mouse, tumour (H69/LX4 SCLC xenograft), iv, single i.v. 20 mg kg-1, H69/LX4 tumour, read-out: apparent elimination half-life in tumour tissue (converted)): 8.79 h
Tmax (in vivo; athymic, mouse, tumour (H69/LX4 SCLC xenograft), iv, single i.v. 20 mg kg-1, H69/LX4 tumour, read-out: time of maximum concentration in tumour tissue): 1.5 h
concentrations in H69/LX4 MDR tumours over a 25 h period (in vivo; single i.v. 20 mg kg-1, 25 h period): 0.6-9.4
maximum concentration in tumour tissue (in vivo; [11]): 6.94
maximum concentration in tumour tissue (molar) (in vivo; [11]): 9.4
bioavailability ([2]; Balb/c, oral, p.o. 50 mg kg-1 vs i.v., mice): ~46%
Tmax ([2]; po, p.o. 50 mg kg-1, Balb/c mice): ~3.4 h
AUC(0-t) ([2]; po, p.o. 50 mg kg-1, Balb/c mice, read-out: AUC0-24 h): 13500 ng·h/mL
Cmax ([2]; po, p.o. 50 mg kg-1, Balb/c mice, read-out: Cmax in plasma): 1300 ng/mL
Cmax ([2]; po, p.o. 50 mg kg-1, Balb/c mice, read-out: Cmax in plasma (molar)): 1800 nM
survival time ([3]; P388/P-sensitive cells implanted i.p.): 12 days
lifespan of sensitive tumour-bearing animals, co-administration with cytotoxic drug ([3]; XR9051 20 or 40 mg kg-1 i.v. with vincristine or doxorubicin): did not further increase the lifespan
tumour growth inhibition, XR9051 alone ([4]; XR9051 alone, pilot experiments): no significant inhibitory activity
tumour growth on day 14 compared to cytotoxic drug alone ([4]; XR9051 i.p. 20 mg kg-1 at 0 and 4 h with doxorubicin 5 mg kg i.v. at 1 h): significant (P < 0.001) inhibition of tumour growth
body weight gain between the various groups ([4]; XR9051 i.p. or p.o. with doxorubicin): no differences in body weight gain
tumour growth on day 14 compared to cytotoxic drug alone ([4]; XR9051 p.o. 40 mg kg-1 at 0 and 4 h with doxorubicin 5 mg kg i.v. at 1 h): significant (P < 0.001) inhibition of tumour growth
enhancement of sensitivity of MC26 cells to doxorubicin (MC26 cells): three-fold
extent of reversal of resistance ([5]; XR9051 40 mg kg-1 with epirubicin, compared with sensitive 2780 tumours (Plumb et al, 1994)): full reversal of resistance
tumour growth rate compared with either drug alone ([5]; XR9051 i.p. 20-40 mg kg-1 2 h before and after epirubicin 10 mg kg-1 i.v., P < 0.01, dose related): significantly reduced growth rate
tumour growth rate compared with either drug alone ([6]; XR9051 10 mg kg-1 i.v. with Paclitaxel 20 mg kg-1 i.p., days 0, 2 and 4): significantly reduced tumour growth rate
tumour growth rate compared with either drug alone ([6]; XR9051 20 mg kg-1 i.v. with etoposide 30 mg kg-1 i.p., days 0, 5 and 11): significantly reduced tumour growth rate
tolerability of combination schedules as judged by changes in body weights ([6]; XR9051 i.v. with Paclitaxel or etoposide (data not shown)): well-tolerated
potentiation of anti-tumour activity of doxorubicin ([7]; XR9051 40 mg kg-1 i.p. or p.o. with doxorubicin (2 mg kg-1), P < 0.01): significantly potentiated the anti-tumour activity
potentiation of anti-tumour activity of vincristine ([7]; XR9051 40 mg kg-1 i.p. or p.o. with vincristine 0.5 mg kg-1 i.p., P < 0.01): significantly potentiated the anti-tumour activity
tolerability of combination schedules ([7]; XR9051 with vincristine or doxorubicin): well-tolerated
survival, modulator alone ([8]; XR9051 alone by any route, mice bearing sensitive or resistant tumours): no effect on survival
lifespan of resistant tumour-bearing animals ([8]; XR9051 i.p. 5, 10 and 20 mg kg-1 with vincristine 0.1 mg kg-1 i.p., dose-dependent (data not shown)): increase in lifespan
survival of resistant leukaemia-bearing mice, combination vs cytotoxic drug alone ([8]; XR9051 i.v. 10, 20 or 40 mg kg-1 1 h before vincristine 0.1 mg kg-1 i.p.): significantly increased survival
survival of resistant leukaemia-bearing mice, combination vs cytotoxic drug alone ([8]; XR9051 p.o. 60, 80 or 120 mg kg-1 1 h before vincristine 0.1 mg kg-1 i.p.): significantly increased survival
toxicity of combination therapy as assessed by body weight loss ([8]; XR9051 with vincristine or doxorubicin (data not shown)): no significant increase in toxicity
oral potency relative to i.v. administration ([8]; xenograft and murine tumour models): two- to three-fold less
concentration that fully reverses resistance to a range of cytotoxic drugs in vitro [9]: 300 to 500 nM

COc1cccc2c1C(=O)c1c(O)c3c(c(O)c1C2=O)C[C@@](O)(C(=O)CO)C[C@@H]3O[C@H]1C[C@H](N)[C@H](O)[C@H](C)O1 [doxorubicin, reference compound]
lifespan of tumour-bearing animals vs vehicle alone [3]: increased the lifespan
survival, cytotoxic drug in the absence of XR9051 [8]: little or no effect on survival

CC[C@]1(O)C[C@H]2CN(CCc3c([nH]c4ccccc34)[C@@](C(=O)OC)(c3cc4c(cc3OC)N(C=O)[C@H]3[C@@](O)(C(=O)OC)[C@H](OC(C)=O)[C@]5(CC)C=CCN6CC[C@]43[C@@H]65)C2)C1 [vincristine, reference compound]
lifespan of tumour-bearing animals vs vehicle alone [3]: increased the lifespan
survival, cytotoxic drug in the absence of XR9051 [8]: little or no effect on survival
resistance factor of cell line to vincristine (P388/DX Johnson cells): 70 fold
resistance factor of cell line to vincristine [10]: 22 fold
